Here are results for 3 compounds from article PMC2904697, “A Screen for Kinetochore-Microtubule Interaction Inhibitors Identifies Novel Antitubulin Compounds” (PLoS ONE, 2010).

The test system of one experiment is taxol-stabilized MTs. The experiment in a line: Compound-based depolymerization of taxol-stabilized MTs in vitro. The class given is biochemical, bovine. Conditions: compound 50 µmol/l; for Taxol-stabilized MT population depolymerized: taxol (20 µmol/l)-stabilized MTs. How it is done:
To test this hypothesis, we treated HeLa cells with 0.5 µmol/l taxol, thereby arresting them in metaphase with stabilized spindles. […] To quantify the taxol-mediated inhibition of MT disassembly by compound B, we measured in vitro the depolymerization of taxol (20 µmol/l)-stabilized MTs following incubation with 50 µmol/l compound B (the screen condition). Nocodazole and maytansine (both at 50 µmol/l) were included as controls. At 50 µmol/l, compound B depolymerized 3% of the taxol-stabilized MT population, while nocodazole and maytansine depolymerized 11% and 31% of the taxol-treated MTs, respectively (Fig. 4B). […] This finding further supports our hypothesis that the interaction of compound B with the stabilized MTs must have prevented the Ndc80^488 complex from establishing contact with the MT surface.
MTs were polymerized (30 min, 37°C) from a 1∶10 mixture of rhodamine-labeled:unlabeled bovine brain αβ-tubulin (Cytoskeleton) in BRB-80 buffer (80 mmol/l PIPES pH 6.8, 1 mmol/l MgCl2, 1 mmol/l EGTA) and were then stabilized with 20 µmol/l taxol. The Ndc80^488 complex (0.1 µmol/l) was incubated with 100 µmol/l compound (30 min, 24°C) in 96-well polypropylene plates (Eppendorf). The 10,000 compound DIVERset library (Chembridge) and 200 compounds from the Department of Medicinal Chemistry and Technologies, University of Rome La Sapienza were used in the screen. Next, the MTs (100 nmol/l) were added to the compound-Ndc80^488 complex solution in a 1∶1 v/v ratio. After incubation (10 min, 24°C), the reaction mixtures were transferred to 96-well glass-bottom plates (Greiner Bio-one). Each well was imaged at 519 nm and 590 nm with an IX81 Olympus inverted wide-field microscope (Olympus). Total internal reflection fluorescence imaging was performed with an Olympus IX71 inverted wide-field microscope (Olympus). ImageJ was used for image processing (NIH, USA).
Taxol-stabilized MTs were prepared and diluted as described for the Ndc80^488 binding experiments. Varying compound concentrations in 10 µl of DMSO were added to 490 µl of diluted MTs at 37°C. Following incubation (30 min, 37°C), 450 µl of each mixture was centrifuged (10 min; 30,000 rpm; 37°C) in a Beckman Optima TLX centrifuge (TLA120.1 rotor). Pellets were dissolved in 25 µl of 8 mol/l urea, and the protein content of 20 µl was compared with that from pellets formed without compound.

Experiment [1] deals with colchicine site in αβ-tubulin. The experiment can be described thus: [3H]colchicine competition (DEAE-cellulose filter method). The class given is binding. Particulars: [3H]colchicine 5 µmol/l, tubulin 1 µmol/l. An excerpt:
Agents that inhibit tubulin polymerization and destabilize MTs include the colchicinoids, combretastatins, benzimidazole carbamates, vinca alkaloids, and maytansinoids. These drugs act primarily at β-tubulin in the αβ-heterodimer, albeit at different sites. Colchicinoids, combretastatins and benzimidazole carbamates (e.g. nocodazole) localize to the colchicine site near the C-terminus of β-tubulin at the αβ-tubulin intradimer interface, [16], whereas vinca alkaloids and maytansinoids localize to the N-terminal GTPase domain of β-tubulin [17], [18]. […] Its binding affinity, however, was ∼3-fold lower than that of nocodazole (compare values at 5 µmol/l and 20 µmol/l, Fig. 5C).
Tubulin binding of [^3H]colchicine was measured by the DEAE-cellulose filter method. Reaction mixtures contained 1.0 µmol/l αβ-tubulin, 1.0 mol/l monosodium glutamate, 0.1 mol/l glucose-1-phosphate, 1.0 mmol/l MgCl2, 1.0 mmol/l GTP, 0.5 mg/ml BSA, 5% DMSO, 5 µmol/l [^3H]colchicine, and inhibitor at 1, 5, 20 or 50 µmol/l. These reaction conditions strongly stabilize the colchicine-binding activity of tubulin [21].

The subject of experiment [2] is HeLa cells. The experiment in a line: Mitotic delay and cell death in G1/S-synchronized HeLa cells (time-lapse videomicroscopy). The class given is cell-based, human. As for the experimental part:
(§1) At compound B concentrations of 5 µmol/l and above, the cells arrested robustly in metaphase (∼15 h) and then underwent cell death, as diagnosed by cell shrinkage (Fig. 3B). […] This phenotype is indicative of chromatids being unable to bind to spindle MTs and/or of spindle defects, as observed with nocodazole (Fig. 3C). […] Because drugs that inhibit tubulin polymerization also destabilize MTs, we next probed whether compound B destabilized metaphase spindles. We arrested HeLa cells in metaphase using 10 µmol/l of proteosome inhibitor MG132. […] Thus, compound B prevents tubulin assembly and destabilizes spindle MTs in cells.
Next, we determined whether the elevated antitubulin activities of compounds A6, A8, D7 and E7 (versus compound B), and the discrepancies in activity between the compounds themselves were reflected in their effects on mitosis. G1/S synchronized HeLa cells were released into growth medium containing 100 or 500 nmol/l of these compounds or compound B; the duration of the mitotic delay by the compounds and the percentage of cells undergoing subsequent cell death were scored. […] The four compounds triggered mitotic delays to an extent that directly reflects their activities in vitro (compare Fig. 6E and Fig. 6, panels B to D). […] Of note, each of our compounds acted in cells with an efficacy exceeding those measured in vitro (compare Fig. 6E and Fig. 5). This discrepancy may be due to increased compound:tubulin ratios in cells. Alternatively, the compounds may be modified intracellularly, resulting in enhanced activity. Because compound B and the four second-generation compounds are 6-furan-2-yl-3-methyl-4-oxo-4,5,6,7-tetrahydro-1H-indole-2-carboxylic acid derivatives, we have named these tubulin inhibitors “furan-metoticas”.

The subject of experiment [3] is HeLa cells. The experiment in a line: Spindle integrity and reversibility in HeLa cells (confocal IF imaging). The class given is cell-based, human. Particulars: for Time after washout until all cells had arrested with a mitotic spindle (reversibility): compound B 5 µmol/l, washout and release into MG132 containing medium. As for the experimental part: as §1
To probe whether the activity of compound B is reversible or not, we synchronously released G1/S arrested HeLa cells into fresh medium containing 5 µmol/l compound B (nocodazole was used as the positive control). The cells efficiently arrested in […] due to absence of a mitotic spindle (Fig. 3E, left column of images in each set). Compound B and nocodazole were then washed out and the cells were released in MG132 containing medium.
G1/S synchronization with 2.5 mmol/l thymidine was carried out for 16 h. IF imaging (Leica TCS SP2 confocal microscope) was performed on cells fixed with 4% paraformaldehyde, permeabilized with 0.1% Triton X-100 and treated with 4% BSA. The cells were incubated with appropriate antibodies diluted in 4% BSA in PBS. Primary antibodies used in IF imaging were mouse monoclonal antiNdc80 antibody (1∶1000, Genetex Clone 9G3.23), CREST serum (1∶50, Antibodies Incorporation) and mouse monoclonal anti-α-tubulin antibody (1∶2000, Sigma-Aldrich Clone B512). Secondary antibodies used were Alexa Fluor 488 (1∶150), Cy3 (1∶400) and Cy5 (1∶50) (Jackson Immunoresearch).

Some results are limits rather than exact numbers.

For the compound `CCSCCOC(=O)c1[nH]c2c(c1C)C(=O)C[C@@H](c1ccco1)C2` [A8], in the experiment on taxol-stabilized MTs, the “Depolymerization of taxol-stabilized MTs” value is “mildly depolymerized”. For the same compound, the “Fold more active than compound B as inhibitors of [3H]colchicine-tubulin binding” value in experiment [1] is reported as 3 fold. For the same compound, in the experiment with HeLa cells [2] (HeLa released from G1/S, 500 nmol/l), the “Effect on mitosis at 500 nmol/l” value is given as “robust mitotic block, followed by cell death”.

Regarding `COC(=O)Nc1nc2ccc(C(=O)c3cccs3)cc2[nH]1` [nocodazole, reference compound], the “Taxol-stabilized MT population depolymerized” value in the experiment on taxol-stabilized MTs came out at 11%. Moreover, the “Time after washout until all cells had arrested with a mitotic spindle (reversibility)” value in the experiment on HeLa cells [3] (HeLa) is not above 3 h.

`Cc1c(C(=O)OCC2CCCO2)[nH]c2c1C(=O)CC(c1ccco1)C2` (centres unmarked) [compound B, 6-furan-2-yl-3-methyl-4-oxo-4,5,6,7,-tetrahydro-1H-indole-2-carboxylic acid tetrahydro-furan-2-ylmethyl ester]: the “Taxol-stabilized MT population depolymerized” value with taxol-stabilized MTs amounted to 3%. Also, the “Binding affinity for the colchicine site, fold lower than that of nocodazole” value in experiment [1] (values at 5 and 20 µmol/l compared) is approximately 3 fold. Also, the “Inhibition of [3H]colchicine binding to tubulin” value in experiment [1] (compound 1–50 µmol/l) is “significantly inhibited”. Besides, in the experiment with HeLa cells [2] (HeLa released from G1/S), the “Concentration inducing a mitotic delay” value lay within 1 to 10 µmol/L and the “Concentration inducing cell death” value was in the range of 5 to 10 µmol/L. Further, the “Duration of metaphase arrest” value in the experiment with HeLa cells [2] (HeLa, compound concentrations of 5 µmol/l and above, followed by cell death) is listed as approximately 15 h. The “Effect on metaphase spindles of MG132-arrested cells” value with HeLa cells [3] (HeLa arrested with 10 µmol/l MG132, 10 µmol/l compound) is listed as “depolymerized the spindle”. The “Spindle formation in cells released from G1/S” value in the experiment with HeLa cells [3] (HeLa, 10 µmol/l compound, confocal IF) is “All cells lacked a mitotic spindle”. Moreover, in the experiment with HeLa cells [3] (HeLa), the “Time after washout until all cells had arrested with a mitotic spindle (reversibility)” value was not above 3 h.
